In US20170304329A1 (THE UNIVERSITY OF KANSAS, priority 2014, published 2017):
Several values for one entry are separate records, joined by “and”; a condition that tells them apart may be missing. Equal values may be shown once. Where a name gives a salt, the structure may show the parent alone. Read-outs that look alike come from different tables or passages of the source.

How the values were obtained:
[1] = tested on: β-glucuronidase
Procedure: Based on human excretion data [Kellner et al, Arzneimittel-Forschung. 31 (8A):1337-1353], as well as evidence that bladder cancer patients have increased glucuronidase activity in urine [Paigen, K., Peterson, J., Paigen B. (1984) Role of urinary β-glucuronidase activity in human bladder cancer. Cancer Res 44:3620-3623], we conducted in vitro metabolism studies to characterize the stability of ciclopirox glucuronide in urine (at a concentration of 150 μM) obtained from bladder cancer patients compared to control urine collected from healthy volunteers.

[2] = tested on: 253JBV cells; assay: Cell proliferation, hexosaminidase assay; type: cell-based, human
Procedure: (§1) To determine the effect of CPX on bladder cancer cell proliferation in T24 (MIBC) and 253-JBV (NMIBC) cells, 5,000 cells per well were seeded on to 96-well plates and grown overnight. The cells were then treated with increasing doses of CPX in RPMI media containing 10% FBS. Analysis of cell proliferation after the treatment period was estimated by the hexosaminidase assay. Briefly, the medium was removed and hexosaminidase substrate solution in citrate buffer pH 5 (7.5 mM), p-nitrophenol-N-acetyl-beta-D-glucosaminidase (Sigma Aldrich) was added at 75 μL per well. The plate was incubated at 37° C. in 100% humidity for 30 minutes. The reaction was stopped with 112.5 μL of 50 mM glycine containing 5 mM of EDTA (pH 10.4). The absorbance was measured at 405 nm. Experiments were conducted at n=6, and then repeated at least three times. The data were analyzed as percent of control, where the control wells were treated with equivalent amounts of DMSO alone. For IC50 calculations, a plot between the drug concentration and hexosaminidase activity was generated and the data was fitted either linearly or exponentially. The best fit was used for further processing of data.
(§2) We determined and compared the effect of CPX with CPX-POM and CPX-glucuronide in vitro by performing proliferation assay. To determine the effect of CPX, CPX-POM and CPX-glucuronide on bladder cancer cell proliferation in T24 (MIBC) and 253-JBV (NMIBC) cells, 5,000 cells per well were seeded on to 96-well plates and grown overnight. The cells were then treated with increasing doses of CPX, CPX-POM and CPX-glucuronide in RPMI media containing 10% FBS. Analysis of cell proliferation after the treatment period was estimated by the hexosaminidase assay. Briefly, the medium was removed and hexosaminidase substrate solution in citrate buffer pH 5 (7.5 mM), p-nitrophenol-N-acetyl-beta-D-glucosaminidase (Sigma Aldrich) was added at 75 μL per well. The plate was incubated at 37° C. in 100% humidity for 30 minutes. The reaction was stopped with 112.5 μL of 50 mM glycine containing 5 mM of EDTA (pH 10.4). The absorbance was measured at 405 nm.
(§3) Experiments were conducted at n=6, and then repeated at least three times. The data were analyzed as percent of control, where the control wells were treated with equivalent amounts of DMSO alone. For IC50 so calculations, a plot between the drug concentration and hexosaminidase activity was generated and the data was fitted either linearly or exponentially.

[3] = tested on: T24 cells; assay: Cell proliferation, hexosaminidase assay; type: cell-based, human
Procedure: as §1, §2, §3

[4] = Study 208-02: plasma CPX pharmacokinetics after IV and oral CPX-O and CPX-POM; type: in vivo, male C57/Bl6 mice; conditions: mice
From the text: Study 208-02. Bioavailability of Ciclopirox Following Oral and Intravenous Administration of Ciclopirox-POM Prodrug in the Mouse. […] The objectives of this study were to characterize the rate and extent of CPX-POM metabolism and assess the feasibility of orally administered ciclopirox-POM prodrug in support of future cancer proof of principle studies.

[5] = Study 11428: plasma CPX pharmacokinetics after IV CPX-POM, SQ CPX-POM and oral CPX-O; type: in vivo, male Sprague-Dawley rats; conditions: rats; for AUC: plasma, po
From the text: (§6) Intravenous CPX-POM was used as the reference in characterizing the bioavailability of ciclopirox following SQ ciclopirox-POM prodrug in this specie.

[6] = Study 11429: plasma CPX pharmacokinetics after IV CPX-POM, SQ CPX-POM and oral CPX-O; type: in vivo, male beagle dogs; conditions: dogs; for AUC: plasma, po, 9 mg/kg
From the text: as §6

[7] = rats
[8] = dogs
[9] = humans; oral; cited from earlier work
[10] = cited from earlier work
[11] = Study 11206: urine CPX and CPX-G pharmacokinetics after single and repeated IP CPX-POM; type: in vivo, male C57/Bl6 mice; conditions: mice; IP 50, 100, and 200 mg/kg
Procedure: Urine ciclopirox (CPX) pharmacokinetics were characterized in mice following single (Day 1) and repeat (Day 10) dose (once daily for ten consecutive days) administration of 50, 100, and 200 mg/kg ciclopirox-POM prodrug (CPX-POM) to three separate groups of six mice each, are summarized in Table 3B below. […] Following single and repeat dose IP administration of 50, 100, and 200 mg/kg CPX-POM, less than 1% of the dose was excreted as CPX over 24 hours. Despite the low percent dose recovery as ciclopirox, however, urine CPX concentrations exceeded the in vitro IC50 value of 2 μM by several-fold across the entire dose range.

[12] = Study 10954: plasma CPX pharmacokinetics after IV CPX-POM and CPX-O; type: in vivo, male Sprague-Dawley rats; conditions: rats
From the text: (§4) Study 10954. Bioavailability of Ciclopirox Following Intravenous Administration of Ciclopirox-POM Prodrug in the Rat. […] Given the low oral bioavailability of CPX observed in the mouse following administration of CPX-O and CPX-POM, this route of administration was not investigated in this study.

[13] = Study 10954: urine CPX and CPX-G pharmacokinetics after IV CPX-POM and CPX-O; type: in vivo, male Sprague-Dawley rats; conditions: rats; 10 mg/kg IV
From the text: as §4

[14] = Study 10953: plasma CPX pharmacokinetics after IV CPX-POM and CPX-O; type: in vivo, male beagle dogs; conditions: dogs
Procedure: (§5) Study 10953. Bioavailability of Ciclopirox Following Intravenous Administration of Ciclopirox-POM Prodrug in the Dog. […] Given the low oral bioavailability of CPX observed in the mouse following administration of CPX-O and CPX-POM, this route of administration was not investigated in this study.
FIG. 14 illustrates the mean plasma CPX concentration-time profiles following administration of 3 mg/kg IV CPX-POM and CPX-O to four male beagle dogs.

[15] = Study 10953: urine CPX pharmacokinetics after IV CPX-POM and CPX-O; type: in vivo, male beagle dogs; conditions: dogs; 3 mg/kg IV
From the text: as §5

[16] = tested on: BBN induced bladder tumors; assay: BBN induced bladder tumor model; type: in vivo, mouse
From the text: There were no significant differences in bladder weights between the two CPX-POM treatment groups. […] There is a strong correlation between CPX-POM treatment and tumor stage. […] Hematoxylin and Eosin stained bladder tissue sections of BBN alone group animals show a very high frequency of T3 stage tumors.

[17] = tested on: proliferating cell nuclear antigen (PCNA) in T24 cells; assay: Western blot of PCNA; type: cell-based, human
From the text: CPX-POM inhibits proliferating cell nuclear antigen (PCNA) both in vitro and in vivo. […] Also, studies show a positive correlation between notch intracellular pathway and PCNA.

[18] = Aqueous solubility; type: physicochemical
[19] = mice
Procedure: The plasma and urine pharmacokinetics of ciclopirox (CPX) were characterized in the mouse following 10 mg/kg IV and 50 mg/kg IP administration of ciclopirox-POM prodrug (CPX-POM). […] In addition, we characterized the urinary excretion of CPX and ciclopirox glucuronide (CPX-G) to describe urinary tract exposure to CPX following IP administration of CPX-POM. Two treatment groups of 30 C57BL/6 mice each were treated with CPX-POM. Prior to and over six hours post-dose, three animals were sacrificed at each selected plasma sampling time point. Blood (plasma) was collected by cardiac puncture for bioanalysis. Plasma was pooled at each time point. In addition, two groups of six mice each were administered 10 mg/kg IV and 50 mg/kg IP CPX-POM to characterize urine pharmacokinetics. Mice were placed in metabolism cages with urine collected over 24 hours post-dose (0-8 hour and 8-24 hour urine collection intervals). As with plasma, urine samples collected from six animals were pooled for bioanalysis.

[20] = Series of pharmacokinetic studies (summary); conditions: following IV administration in mice, rats, and dogs
[21] = 150 μM CPX-G, six-hour incubation, pooled urine from six NMIBC patients
[22] = male, C57/Bl6, mouse, plasma CPX, single 10 mg/kg IV
[23] = male, Sprague-Dawley, rat, plasma CPX, single 30 mg/kg oral
[24] = male, beagle, dog, plasma CPX, single 9 mg/kg oral

## Cc1cc(C2CCCCC2)n(O[C@H]2OC(C(=O)O)[C@H](O)C(O)C2O)c(=O)c1 (stereo partly shown) [CPX-G, ciclopirox glucuronide]
[1]; [21]
  ciclopirox formed by hydrolysis: 7.9 µM
  formation rate: 5%
[1]; bladder cancer patient urine compared to healthy volunteers
  extent of ciclopirox formation, patient urine vs healthy volunteer urine: approximately 11.6 fold
[1]; pooled bladder cancer patient urine vs control urine
  rate of β-glucuronidase-mediated hydrolysis, patient urine vs control urine: 5.6-11.5 fold
[2]; up to 72 h
  effect on cell proliferation: did not show any significant effect
[3]; up to 72 h
  effect on cell proliferation: did not show any significant effect

## Cc1cc(C2CCCCC2)n(O)c(=O)c1 [CPX-O, ciclopirox olamine]
[4]; [22]
  C0: 11300 ng/mL
  MRT: 15.5 min
  clearance: 108 mL/min/kg
[4]; male, C57/Bl6, mouse, plasma CPX, single 10 mg/kg IV, read-out: Vss
  Vd: 1.68 L/kg
[4]; plasma CPX, single 10 mg/kg IV
  AUMC0∫^n: 358 ng*hr^2/mL
  AUMC0∫^∞: 401 ng*hr^2/mL
  Vdz: 5.7 L/kg
[5]; male, Sprague-Dawley, rat, 30 mg/kg, plasma CPX, single 30 mg/kg oral, read-out: AUC0∫^n
  AUC: 211 ± 84.5 ng·h/mL
[5]; male, Sprague-Dawley, rat, 30 mg/kg, plasma CPX, single 30 mg/kg oral, read-out: AUC0∫^∞
  AUC: 378 ± 140 ng·h/mL
[5]; [23]
  Cmax: 373 ± 158 ng/mL
  Tmax: 15 ± 7.74 min
  half-life: 48.1 ± 33.5 min
[5]; plasma CPX, single 30 mg/kg oral
  Kel: 1.234 ± 0.742 h⁻¹
[5]; plasma CPX, single 30 mg/kg oral, reference IV CPX-POM, 30 mg/kg
  F: 4.6% and 4.56%
[6]; male, beagle, dog, plasma CPX, single 9 mg/kg oral, read-out: AUC0∫^n
  AUC: 1900 ng·h/mL
[6]; male, beagle, dog, plasma CPX, single 9 mg/kg oral, read-out: AUC0∫^∞
  AUC: 2700 ng·h/mL
[6]; [24]
  Cmax: 1020 ng/mL
  Tmax: 15 ± 7.74 min
  half-life: 331 ± 23.4 min
[6]; plasma CPX, single 9 mg/kg oral
  Kel: 0.126 ± 0.009 h⁻¹
[7]; urine, single 30 mg/kg oral
  FeCPX: 0.25 ± 0.18%
  Xe/dtCPX 0-8 hr: 0.63 ± 0.16 µg/h
  Xe/dtCPX 8-24 hr: 1.08 ± 1.11 µg/h
  XeCPX 0-24 hr: 22.30 ± 16.65 µg
[7]; urine, single 30 mg/kg oral, 30 mg/kg
  UCPX 0-24 hr: 1,711 ± 1,427 ng/mL and 8.28 ± 6.89 μM
[8]; urine, single 9 mg/kg oral
  FeCPX: 0.32 ± 0.21%
  Xe/dtCPX 8-24 hr: 2.90 ± 1.70 µg/h
  XeCPX 0-24 hr: 299 ± 208 µg
[8]; urine, single 9 mg/kg oral, 9 mg/kg
  UCPX 0-24 hr: 1,602 ± 750^ ng/mL and 7.74 ± 3.62 μM
[9]
  dose excreted in urine within 6 hours: 87%
  dose excreted in urine within 12 hours: approximately 95%
  dose in urine identified as ciclopirox: 4%
  dose in urine identified as ciclopirox and ciclopirox glucuronide: 83%
  dose in urine identified as ciclopirox glucuronide: 79%
[10]; 80 mg/m^2 oral, once daily
  tolerability: well tolerated
[10]; oral, four times daily
  toxicity: dose-limiting gastrointestinal toxicity

## Cc1cc(C2CCCCC2)n(OCOP(=O)(O)O)c(=O)c1 [CPX-POM, phosphate disodium salt]
[4]; following oral and IV administration
  prodrug in plasma: not detected in plasma
[11]
  CPX-POM in urine: not detected in any urine samples
[12]; 10 mg/kg IV bolus
  CPX-POM in plasma: failed to detect CPX-POM in the majority of samples collected
[12]; 10 mg/kg IV, IC50 2 μM (414 ng/mL)
  Cmax relative to in vitro IC50: approximately twenty-fold greater than the IC50
[13]
  CPX-POM in urine: not detected in any urine samples collected
[5]; 20 mg/kg IV and 30 mg/kg SQ
  CPX-POM in blood or urine: not detected in any blood or urine sample
[14]; 3 mg/kg IV bolus
  CPX-POM in plasma: not detected in the majority of plasma samples assayed
[14]; 3 mg/kg IV, IC50 2 μM (414 ng/mL)
  mean Cmax relative to in vitro IC50: approximately seven-fold greater than the IC50
[15]
  CPX-POM in urine: not detected in any urine sample
[6]; 3 mg/kg IV and 9 mg/kg SQ
  CPX-POM in blood or urine: not detected in any blood or urine sample
[2]; Homo sapiens, 48 h
  IC50: 48 µM
[3]; Homo sapiens, T-24, 48 h, 48 h
  IC50: ≥ 45 µM
[16]; H&E stained bladder tissue sections, vs BBN alone
  tumor stage: significant reduction in the stage T3 frequency
[16]; bladder tissue
  Notch downstream target proteins: significantly reduced the Notch downstream target proteins such as Cyclin D1 and c-Myc
[16]; bladder tissue, both treatment groups
  Notch1 signaling and γ-secretase complex proteins in vivo: significantly reduced Notch1 activation
[16]; bladder tumor tissues
  PCNA level in vivo: reduced the level of PCNA in vivo
[16]; four weeks once daily IP 100 mg/kg and 200 mg/kg, vs controls
  bladder weights (measure of tumor volume): significantly lower (p=0.013)
[17]
  PCNA level: time dependent decrease in the level of PCNA
[18]
  aqueous solubility: improve the aqueous solubility of ciclopirox
[19]; 10 mg/kg IV and 50 mg/kg IP single doses
  tolerability: well tolerated
[19]; 50 mg/kg IP, IC50 2 μM (414 ng/mL)
  CPX Cmax relative to in vitro IC50: five-fold greater than the IC50
[19]; following either treatment (10 mg/kg IV, 50 mg/kg IP)
  CPX-POM in plasma (BQL): < 25 ng/mL
[7]; 20 mg/kg IV and 30 mg/kg SQ
  tolerability: well tolerated
[8]; 3 mg/kg IV and 9 mg/kg SQ
  tolerability: well tolerated
[20]
  prodrug in plasma and urine: not detected in plasma nor urine
